# Experimental data published in publication PMC7043280 (European journal of medicinal chemistry, 2018).
# Tests used:
# [1] = test system: GluN1/GluN2A-D diheteromeric NMDARs; test: TEVC electrophysiology, values stated in the text across several GluN2 subtypes; assay type: cell-based, rat
# GluN1/GluN2B NMDAR = GluN1/GluN2B NMDAR (Rattus norvegicus, UniProt P35439+Q00960); test: TEVC electrophysiology on recombinant NMDA receptors; assay type: cell-based; conditions: for fold greater inhibitory activity on GluN2B compared to 7: from IC50 values, Table 6
# Sequence of GluN1/GluN2B NMDAR (Q00960 27-1482, other chains not shown): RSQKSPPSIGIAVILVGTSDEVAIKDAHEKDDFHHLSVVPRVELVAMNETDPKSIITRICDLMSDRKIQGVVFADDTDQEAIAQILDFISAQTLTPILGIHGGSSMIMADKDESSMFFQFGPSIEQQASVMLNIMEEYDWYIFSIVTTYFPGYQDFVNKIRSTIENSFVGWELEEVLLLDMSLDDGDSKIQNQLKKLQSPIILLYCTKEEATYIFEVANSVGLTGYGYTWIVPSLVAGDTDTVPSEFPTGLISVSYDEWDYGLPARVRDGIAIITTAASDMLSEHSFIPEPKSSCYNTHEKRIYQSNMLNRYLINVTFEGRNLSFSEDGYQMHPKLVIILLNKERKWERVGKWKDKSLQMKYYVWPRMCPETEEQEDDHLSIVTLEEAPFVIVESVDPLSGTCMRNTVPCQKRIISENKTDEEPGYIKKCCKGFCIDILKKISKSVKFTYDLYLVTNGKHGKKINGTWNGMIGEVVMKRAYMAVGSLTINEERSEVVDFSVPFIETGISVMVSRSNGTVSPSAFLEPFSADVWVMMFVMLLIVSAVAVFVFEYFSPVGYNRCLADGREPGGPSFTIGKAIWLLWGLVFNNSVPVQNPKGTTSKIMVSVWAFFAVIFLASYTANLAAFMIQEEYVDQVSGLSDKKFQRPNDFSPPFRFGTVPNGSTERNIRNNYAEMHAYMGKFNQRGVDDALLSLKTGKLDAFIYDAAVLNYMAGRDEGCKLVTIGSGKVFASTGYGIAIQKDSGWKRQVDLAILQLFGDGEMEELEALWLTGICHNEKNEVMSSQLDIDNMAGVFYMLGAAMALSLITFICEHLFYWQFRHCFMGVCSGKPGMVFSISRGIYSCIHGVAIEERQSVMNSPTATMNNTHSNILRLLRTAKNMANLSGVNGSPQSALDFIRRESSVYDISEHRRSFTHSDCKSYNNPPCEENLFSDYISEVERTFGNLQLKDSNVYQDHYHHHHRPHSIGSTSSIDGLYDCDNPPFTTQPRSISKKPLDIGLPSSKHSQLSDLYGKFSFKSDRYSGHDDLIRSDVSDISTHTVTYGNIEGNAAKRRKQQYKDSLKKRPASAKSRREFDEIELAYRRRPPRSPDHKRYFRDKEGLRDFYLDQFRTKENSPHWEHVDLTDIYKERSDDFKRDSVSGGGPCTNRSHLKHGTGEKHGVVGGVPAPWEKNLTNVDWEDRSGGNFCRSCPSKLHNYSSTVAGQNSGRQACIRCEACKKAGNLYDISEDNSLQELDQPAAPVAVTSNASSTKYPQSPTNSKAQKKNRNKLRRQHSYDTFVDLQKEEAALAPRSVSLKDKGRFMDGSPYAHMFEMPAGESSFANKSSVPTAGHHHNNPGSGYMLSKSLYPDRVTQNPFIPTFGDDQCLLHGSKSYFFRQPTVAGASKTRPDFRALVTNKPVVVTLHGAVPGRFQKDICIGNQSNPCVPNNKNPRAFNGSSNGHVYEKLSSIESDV
# GluN1/GluN2C NMDAR = GluN1/GluN2C NMDAR (Rattus norvegicus, UniProt P35439+Q00961); test: as above; assay type: cell-based; conditions: from IC50 values, Table 6
# GluN1/GluN2D NMDAR = GluN1/GluN2D NMDAR (Rattus norvegicus, UniProt P35439+Q62645); test: as above; assay type: cell-based; conditions: for percentage maximum inhibition of the agonist response, GluN2D: value in parenthesis, ± s.e.m., L-glutamate 10 μM and glycine 10 μM
# Sequence of GluN1/GluN2D NMDAR (Q62645 28-1323, other chains not shown): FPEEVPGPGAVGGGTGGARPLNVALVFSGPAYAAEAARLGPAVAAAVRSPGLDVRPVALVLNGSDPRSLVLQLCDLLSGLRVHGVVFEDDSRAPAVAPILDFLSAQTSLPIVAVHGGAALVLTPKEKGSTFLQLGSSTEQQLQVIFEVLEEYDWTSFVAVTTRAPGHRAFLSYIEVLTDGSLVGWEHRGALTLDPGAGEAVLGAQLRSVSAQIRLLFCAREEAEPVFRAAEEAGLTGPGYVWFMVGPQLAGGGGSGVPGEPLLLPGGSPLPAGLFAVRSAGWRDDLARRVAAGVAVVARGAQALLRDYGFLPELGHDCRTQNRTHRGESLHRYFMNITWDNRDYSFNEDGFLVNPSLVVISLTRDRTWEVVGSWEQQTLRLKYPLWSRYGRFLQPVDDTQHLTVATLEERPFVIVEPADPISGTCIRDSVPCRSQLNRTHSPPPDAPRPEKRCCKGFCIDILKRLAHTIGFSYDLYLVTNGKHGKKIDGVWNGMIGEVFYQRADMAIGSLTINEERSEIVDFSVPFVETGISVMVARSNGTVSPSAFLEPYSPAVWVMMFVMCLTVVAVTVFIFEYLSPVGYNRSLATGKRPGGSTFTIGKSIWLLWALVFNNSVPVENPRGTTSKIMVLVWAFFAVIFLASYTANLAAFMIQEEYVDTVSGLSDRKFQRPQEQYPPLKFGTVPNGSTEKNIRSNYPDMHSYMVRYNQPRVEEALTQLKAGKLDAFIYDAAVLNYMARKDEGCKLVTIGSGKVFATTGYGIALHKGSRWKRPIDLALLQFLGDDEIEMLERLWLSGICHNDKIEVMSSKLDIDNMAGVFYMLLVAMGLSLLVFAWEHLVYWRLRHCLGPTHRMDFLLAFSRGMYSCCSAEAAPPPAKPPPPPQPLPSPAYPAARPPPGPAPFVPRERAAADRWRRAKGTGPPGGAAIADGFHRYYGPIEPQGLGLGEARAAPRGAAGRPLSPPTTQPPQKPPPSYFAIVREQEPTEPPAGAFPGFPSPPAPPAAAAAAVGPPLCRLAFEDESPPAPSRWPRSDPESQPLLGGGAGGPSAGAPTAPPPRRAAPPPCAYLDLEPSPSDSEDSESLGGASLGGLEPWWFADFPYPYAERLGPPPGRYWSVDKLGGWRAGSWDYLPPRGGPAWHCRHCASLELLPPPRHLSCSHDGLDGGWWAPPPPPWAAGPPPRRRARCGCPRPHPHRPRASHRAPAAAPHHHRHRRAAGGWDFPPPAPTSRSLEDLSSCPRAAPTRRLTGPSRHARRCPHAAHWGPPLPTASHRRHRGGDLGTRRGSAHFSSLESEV
# NMDAR = conditions: cited from earlier work; for NMDAR agonist activity or effect on the holding current: ref Saptoka et al., 2017
# GluN1/GluN2A NMDAR [2] = target: T1, GluN1/GluN2A NMDAR (Rattus norvegicus, UniProt P35439+Q00959); test: TEVC electrophysiology on recombinant NMDA receptors; assay type: cell-based
# T1 sequence (Q00959 23-1464, other chains not shown): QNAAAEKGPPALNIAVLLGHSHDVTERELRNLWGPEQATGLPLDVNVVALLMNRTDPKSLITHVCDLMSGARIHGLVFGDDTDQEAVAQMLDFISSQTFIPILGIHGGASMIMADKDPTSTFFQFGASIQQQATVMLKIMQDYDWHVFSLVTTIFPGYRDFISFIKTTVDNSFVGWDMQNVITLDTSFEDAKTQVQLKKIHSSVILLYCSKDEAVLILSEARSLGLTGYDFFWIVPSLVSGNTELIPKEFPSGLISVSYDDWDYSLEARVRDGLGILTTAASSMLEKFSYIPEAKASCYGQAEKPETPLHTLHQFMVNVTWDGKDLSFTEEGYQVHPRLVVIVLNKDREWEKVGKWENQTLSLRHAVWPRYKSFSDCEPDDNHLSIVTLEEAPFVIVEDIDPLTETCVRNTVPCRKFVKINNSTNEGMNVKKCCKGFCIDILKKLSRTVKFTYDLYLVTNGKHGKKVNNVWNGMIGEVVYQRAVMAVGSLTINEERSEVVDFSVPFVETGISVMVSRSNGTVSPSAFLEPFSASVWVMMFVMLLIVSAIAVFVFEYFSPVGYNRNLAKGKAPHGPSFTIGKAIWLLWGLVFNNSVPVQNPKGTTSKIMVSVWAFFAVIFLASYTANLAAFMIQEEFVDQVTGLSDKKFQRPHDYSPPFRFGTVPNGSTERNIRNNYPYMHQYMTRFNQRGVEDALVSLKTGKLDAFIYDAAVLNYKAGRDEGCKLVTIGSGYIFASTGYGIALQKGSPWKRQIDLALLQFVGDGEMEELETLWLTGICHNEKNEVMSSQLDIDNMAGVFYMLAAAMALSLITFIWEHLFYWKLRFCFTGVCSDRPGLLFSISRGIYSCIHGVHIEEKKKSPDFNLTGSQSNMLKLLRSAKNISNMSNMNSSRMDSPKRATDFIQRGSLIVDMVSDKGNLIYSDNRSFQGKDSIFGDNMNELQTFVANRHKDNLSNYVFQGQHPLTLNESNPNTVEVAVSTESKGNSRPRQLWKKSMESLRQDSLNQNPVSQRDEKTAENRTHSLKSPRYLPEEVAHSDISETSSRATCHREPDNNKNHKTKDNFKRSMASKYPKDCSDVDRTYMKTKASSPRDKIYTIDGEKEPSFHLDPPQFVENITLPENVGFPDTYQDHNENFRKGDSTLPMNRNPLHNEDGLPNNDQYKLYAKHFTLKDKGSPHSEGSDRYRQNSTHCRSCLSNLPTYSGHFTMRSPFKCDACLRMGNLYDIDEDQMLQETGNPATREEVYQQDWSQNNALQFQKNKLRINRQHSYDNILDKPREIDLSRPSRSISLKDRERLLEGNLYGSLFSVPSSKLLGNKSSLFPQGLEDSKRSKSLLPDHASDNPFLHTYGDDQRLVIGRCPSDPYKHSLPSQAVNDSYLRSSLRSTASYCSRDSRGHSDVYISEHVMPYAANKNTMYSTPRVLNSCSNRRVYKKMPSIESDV
# [3] = test system: GluN1/GluN2A-D diheteromeric NMDARs; conditions: cited from earlier work
# GluN1/GluN2A NMDAR [4] = target: T1, GluN1/GluN2A NMDAR; conditions: ref 7a; cited from earlier work
smiles,measurement,setting,value
"CCCCOc1ccc2cc(C(=O)O)ccc2c1 [Compound 24, 6-Butoxy-2-naphthoic acid]",inhibition on at least one of the GluN1/GluN2 subtypes,[1]; 100 μM,≥ 50%
"O=C(O)c1cc2cc(/C=C/c3cccc([N+](=O)[O-])c3)ccc2cc1O [Compound 79i, (E)-3-Hydroxy-7-(3-nitrostyryl)-2-naphthoic acid]",fold greater inhibitory activity on GluN2B compared to 7,GluN1/GluN2B NMDAR,10 fold
same,fold higher inhibitory activity on GluN2C compared to 7,GluN1/GluN2C NMDAR,5 fold
same,fold higher inhibitory activity on GluN2D compared to 7,"GluN1/GluN2D NMDAR; from IC50 values, Table 6",35 fold
same,"percentage maximum inhibition of the agonist response, GluN2D",GluN1/GluN2D NMDAR,70–80%
"O=C(O)c1cc2cc(/C=C/c3ccccc3)ccc2cc1O [Compound 79a, (E)-3-Hydroxy-7-styryl-2-naphthoic acid]",fold greater inhibitory activity on GluN2B compared to 7,GluN1/GluN2B NMDAR,~ 10 fold
same,fold greater inhibitory activity on GluN2C and GluN2D compared to 7,"[1]; GluN2C and GluN2D, from IC50 values, Table 6",3–5 fold
same,maximal inhibition across GluN2A-D,[1]; range over GluN2A-D,83–94%
"O=C(O)c1ccc2cc(I)c3ccccc3c2c1 [Compound 1, reference compound]",glutamate-site or glycine-site NMDAR agonist activity; activity in the absence of agonists,NMDAR,did not display glutamate-site or glycine-site NMDAR agonist activity
"CCCCCc1ccc2cc(CC(=O)O)ccc2c1 [Compound 21, (6-n-Pent-1-ylnaphthalen-2-yl)acetic acid]",inhibition on at least one of the GluN1/GluN2 subtypes,[1]; 100 μM,≥ 50%
CCCc1ccc2cc(C(=O)O)ccc2c1 [6-n-propyl derivative],percentage inhibition on GluN2A-D,"[1]; 100 μM, range over GluN2A-D",0–14%
CCc1ccc2cc(C(=O)O)ccc2c1 [6-ethyl derivative],percentage inhibition on GluN2A-D,"[1]; 100 μM, range over GluN2A-D",17–52%
O=C(O)c1ccc2cc(I)ccc2c1 [6-iodo-2-naphthoic acid],inhibition at 100 µM,GluN1/GluN2A NMDAR [2]; read-out: inhibition of the agonist response on GluN2A,26 ± 2%
same,inhibitory activity on GluN2B-D,"[1]; 100 μM, range over GluN2B-D",9–12%
"CC(C)C(=O)OCc1ccc2cc(C(=O)O)ccc2c1 [Compound 54, 6-((Isobutyryloxy)methyl)-2-naphthoic acid]",inhibition on at least one of the GluN1/GluN2 subtypes,[1]; 100 μM,≥ 50%
"CC(C)COCc1ccc2cc(C(=O)O)ccc2c1 [Compound 57, 6-(Isobutoxymethyl)-2-naphthoic acid]",inhibition on at least one of the GluN1/GluN2 subtypes,[1]; 100 μM,≥ 50%
"O=C(O)c1cc2cc(/C=C/c3ccccc3[N+](=O)[O-])ccc2cc1O [Compound 79h, (E)-3-Hydroxy-7-(2-nitrostyryl)-2-naphthoic acid]","percentage maximum inhibition of the agonist response, GluN2A","GluN1/GluN2A NMDAR [2]; value in parenthesis, ± s.e.m., L-glutamate 10 μM and glycine 10 μM",30%
same,fold higher IC50 on GluN2B compared to 79a,GluN1/GluN2B NMDAR,4 fold
same,"percentage maximum inhibition of the agonist response, GluN2D",GluN1/GluN2D NMDAR,70–80%
same,fold lower IC50 on GluN2A and GluN2D compared to 79a,[1]; GluN2A and GluN2D,3 fold
same,maximal inhibition of GluN2B-D,[1]; range over GluN2B-D,60–80%
"O=C(O)c1cc2cc(-c3ccccc3)ccc2cc1O [Compound 7, reference compound]",maximal inhibition of GluN2A and GluN2B,[3],57–72%
same,glutamate-site or glycine-site NMDAR agonist activity; activity in the absence of agonists,NMDAR,did not display glutamate-site or glycine-site NMDAR agonist activity
"CC(C)CNC(=O)c1ccc2cc(C(=O)O)ccc2c1 [Compound 52, 6-(Isobutylcarbamoyl)-2-naphthoic acid]",inhibition on at least one of the GluN1/GluN2 subtypes,[1]; 100 μM,≥ 50%
"CC(C)CCCc1ccc2cc(C(=O)O)ccc2c1 [Compound 14b, 6-(4-Methylpent-1-yl)-2-naphthoic acid]",potentiation across GluN2A-D,[1]; 100 μM,> 170%
same,EC50,"[1]; read-out: EC50 values across GluN2A-D, range over GluN2A-D",28 to 37.2 µM
same,NMDAR agonist activity or effect on the holding current,NMDAR,no NMDAR agonist activity or effect on the holding current
O=C(O)c1cc2cc(Br)ccc2oc1=O [UBP608],selectivity for GluN2A over GluN2D,GluN1/GluN2A NMDAR [4],23 fold
"CC(C)CCC(C)c1ccc2cc(C(=O)O)ccc2c1 (racemic) [Compound 46, (RS)-6-(5-Methylhexan-2-yl)-2-naphthoic acid]",NMDAR agonist activity or effect on the holding current,NMDAR,no NMDAR agonist activity or effect on the holding current
